The results in this text go back to patent US10723723B2, “Substituted bicycle heterocyclic derivatives useful as ROMK channel inhibitors” (BRISTOL-MYERS SQUIBB COMPANY, priority 2016, dated 2020).

Sequence of hROMK (human Kir1.1) (P48048 whole entry): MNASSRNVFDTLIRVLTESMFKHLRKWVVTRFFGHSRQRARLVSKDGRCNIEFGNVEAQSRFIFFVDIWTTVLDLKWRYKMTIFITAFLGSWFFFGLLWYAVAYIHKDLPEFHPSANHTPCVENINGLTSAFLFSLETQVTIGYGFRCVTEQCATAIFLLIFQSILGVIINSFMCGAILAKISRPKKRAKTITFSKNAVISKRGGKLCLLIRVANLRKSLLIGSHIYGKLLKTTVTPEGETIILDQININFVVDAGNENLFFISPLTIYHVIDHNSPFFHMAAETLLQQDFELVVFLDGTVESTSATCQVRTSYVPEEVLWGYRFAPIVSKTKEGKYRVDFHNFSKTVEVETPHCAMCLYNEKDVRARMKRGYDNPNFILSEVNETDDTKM

The assay addresses hROMK (human Kir1.1) (Homo sapiens (Human), UniProt P48048). The assay is described as follows: Thallium Flux Assay (FluxOR, CHO T-Rex hROMK stable cell line). The assay is classed as cell-based. Conditions: CHO T-Rex hROMK cells, 10-point concentration response curve; read-out: Human ROMK TH Flux IC50.
As for `Cc1c(C(O)CN(C)Cc2ccc(-c3ccc4oc(=O)n(C)c4c3)nc2)ccc2c1COC2=O` (single isomer, unassigned) [Example 1-II, 5-(5-(((2-hydroxy-2-(4-methyl-1-oxo-1,3-dihydroisobenzofuran-5-yl)ethyl)(methyl)amino)methyl)pyridin-2-yl)-3-methylbenzo[d]oxazol-2(3H)-one], the half-maximal inhibitory concentration (IC50) – broadly, the midpoint of a concentration-inhibition curve – was found to be 830 nM. Take `CN(Cc1ccc(-c2ccc3oc(=O)n(C)c3c2)nc1)CC(O)c1ccc2oc(=O)n(C)c2c1` (single isomer, unassigned) [Example 5-I]: the IC50 came to 1500 nM. Regarding `Cc1c(C(O)CNCc2ccc(-c3ccc(C#N)c(F)c3)cc2)ccc2c1COC2=O` (single isomer, unassigned) [Example 10-II, 3-fluoro-4′-(((2-hydroxy-2-(4-methyl-1-oxo-1,3-dihydroisobenzofuran-5-yl)ethyl)amino)methyl)-[1,1′-biphenyl]-4-carbonitrile], the IC50 was found to be 140 nM. Turning to `Cc1c(C(O)CN(C)Cc2ccc(-n3cc(C#N)c4ccccc43)cc2)ccc2c1COC2=O` (single isomer, unassigned) [Example 12-II, 1-(4-(((2-hydroxy-2-(4-methyl-1-oxo-1,3-dihydroisobenzofuran-5-yl)ethyl)(methyl)amino)methyl)phenyl)-1H-indole-3-carbonitrile], the IC50 was found to be 520 nM. For `Cc1c(C(CO)N(C)Cc2cnc(-c3ccc4oc(=O)n(C)c4c3)nc2)ccc2c1COC2=O` (single isomer, unassigned) [Example 14-I, 5-(5-(((2-hydroxy-1-(4-methyl-1-oxo-1,3-dihydroisobenzofuran-5-yl)ethyl)(methyl)amino)methyl)pyrimidin-2-yl)-3-methylbenzo[d]oxazol-2(3H)-one], the IC50 is 4000 nM. Consider `Cc1c(C(CO)NCCc2cccc(-c3ccc(C#N)c(F)c3)c2)ccc2c1COC2=O` (single isomer, unassigned) [Example 15-I, 3-fluoro-3′-(2-((2-hydroxy-1-(4-methyl-1-oxo-1,3-dihydroisobenzofuran-5-yl)ethyl)amino)ethy)-[1,1′-biphenyl]-4-carbonitrile], for which the IC50 stood at 2000 nM.

For `Cc1c(C(CO)NCCc2cccc(-c3ccc(C#N)c(F)c3)c2)ccc2c1COC2=O` (single isomer, unassigned) [Example 15-II, 3-fluoro-3′-(2-((2-hydroxy-1-(4-methyl-1-oxo-1,3-dihydroisobenzofuran-5-yl)ethyl)amino)ethy)-[1,1′-biphenyl]-4-carbonitrile], the IC50 amounted to 1500 nM. Then `Cc1c(C(O)CNCc2ccc3c(cnn3-c3ccc(F)cc3)c2)ccc2c1COC2=O` (single isomer, unassigned) [Example 16-I, 5-(2-(((1-(4-fluorophenyl)-1H-indazol-5-yl)methyl)amino)-1-hydroxyethyl)-4-methylisobenzofuran-1(3H)-one], with 480 nM; and `Cc1c(C(O)CN(C)Cc2cnc(-n3ncc4ncccc43)nc2)ccc2c1COC2=O` (single isomer, unassigned) [Example 17-I, 5-(2-(((2-(1H-pyrazolo[4,3-b]pyridin-1-yl)pyrimidin-5-yl)methyl)(mehyl)amino)-1-hydroxyethyl)-4-methylisobenzofuran-1(3H)-one], with 1500 nM; and `Cc1c(C(O)CN(C)Cc2cnc(-n3ncc4c(C#N)cccc43)nc2)ccc2c1COC2=O` (single isomer, unassigned) [Example 18-I, 1-(5-(((2-hydroxy-2-(4-methyl-1-oxo-1,3-dihydroisobenzofuran-5-yl)ethyl)(methyl)amino)methyl)pyrimidin-2-yl)-1H-indazole-4-carbonitrile], with 230 nM. With `CN(Cc1ccc(-c2ccc(C#N)c(F)c2)nc1)CC(O)c1ccc2oc(=O)n(C)c2c1` (single isomer, unassigned) [Example 24-I, 2-fluoro-4-(5-(((2-hydroxy-2-(3-methyl-2-oxo-2,3-dihydrobenzo[d]oxazol-5-yl)ethyl)(methyl)amino)methyl)pyridin-2-yl)benzonitrile], the IC50 was determined as 2400 nM. As for `CN(Cc1ccc(-c2ccc(C#N)c(F)c2)nc1)CC(O)c1ccc2oc(=O)n(C)c2c1` (single isomer, unassigned) [Example 24-II, 2-fluoro-4-(5-(((2-hydroxy-2-(3-methyl-2-oxo-2,3-dihydrobenzo[d]oxazol-5-yl)ethyl)(methyl)amino)methyl)pyridin-2-yl)benzonitrile], the IC50 was found to be 2400 nM. As to `Cc1c(C(O)CN(C)Cc2ccc(-n3ccc4c(C#N)cccc43)nc2)ccc2c1COC2=O` (single isomer, unassigned) [Example 25-I, 1-(5-(((2-hydroxy-2-(4-methyl-1-oxo-1,3-dihydroisobenzofuran-5-yl)ethyl)(methyl)amino)methyl)pyridin-2-yl)-1H-indole-4-carbonitrile], the IC50 turned out to be 240 nM. On to `Cc1c(C(O)CN(C)Cc2ccc(-n3ccc4c(C#N)cccc43)nc2)ccc2c1COC2=O` (single isomer, unassigned) [Example 25-II, 1-(5-(((2-hydroxy-2-(4-methyl-1-oxo-1,3-dihydroisobenzofuran-5-yl)ethyl)(methyl)amino)methyl)pyridin-2-yl)-1H-indole-4-carbonitrile], for which the IC50 was 520 nM. Take `Cc1c(C(O)CN(C)Cc2ccc(-c3ccc(C#N)c(F)c3)cc2)ccc2c1COC2=O` (single isomer, unassigned) [Example 27-II, 3-fluoro-4′-(((2-hydroxy-2-(4-methyl-1-oxo-1,3-dihydroisobenzofuran-5-yl)ethyl)(methyl)amino)methyl)-[1,1′-biphenyl]-4-carbonitrile]: the IC50 worked out at 240 nM. For `Cc1c(C(O)CN(C)Cc2ccc(-n3ccc4c(C#N)cccc43)cc2)ccc2c1COC2=O` (single isomer, unassigned) [Example 28-II, 1-(4-(((2-hydroxy-2-(4-methyl-1-oxo-1,3-dihydroisobenzofuran-5-yl)ethyl)(methyl)amino)methyl)phenyl)-1H-indole-4-carbonitrile], the concentration for half-maximal inhibition (IC50) was 390 nM. The result for `Cc1c(C(O)CN(C)Cc2ccc(-n3ccc4cc(C#N)ccc43)cc2)ccc2c1COC2=O` (single isomer, unassigned) [Example 30-II, 1-(4-(((2-hydroxy-2-(4-methyl-1-oxo-1,3-dihydroisobenzofuran-5-yl)ethyl)(methyl)amino)methyl)phenyl)-1H-indole-5-carbonitrile] reads 1200 nM; that for `Cc1cc(-c2ccc(CN(C)CC(O)c3ccc4c(c3C)COC4=O)cc2)ncc1C#N` (single isomer, unassigned) [Example 31-II, 6-(4-(((2-hydroxy-2-(4-methyl-1-oxo-1,3-dihydroisobenzofuran-5-yl)ethyl)(methyl)amino)methyl)phenyl)-4-methylnicotinonitrile], 370 nM. In the case of `Cc1c(C(O)CN(C)Cc2ccc(-n3ccc4cc(C#N)ccc43)cc2)ccc2c1COC2=O` (single isomer, unassigned) [Example 32-I, 1-(4-(((2-hydroxy-2-(4-methyl-1-oxo-1,3-dihydroisobenzofuran-5-yl)ethyl)(methyl)amino)methyl)phenyl)-1H-indole-5-carbonitrile], the IC50 is 530 nM. The result for `Cc1cc(-n2ccc3cc(CN(C)CC(O)c4ccc5c(c4C)COC5=O)ccc32)ncc1C#N` (single isomer, unassigned) [Example 33-I, 6-(5-(((2-hydroxy-2-(4-methyl-1-oxo-1,3-dihydroisobenzofuran-5-yl)ethyl)(methyl)amino)methyl)-1H-indol-1-yl)-4-methylnicotinonitrile] reads 3300 nM; that for `CC(=O)N(Cc1ccc(-c2ccc(C#N)c(F)c2)cc1)CC(O)c1ccc2c(c1C)COC2=O` (single isomer, unassigned) [Example 34-I, N-((4′-cyano-3′-fluoro-[1,1′-biphenyl]-4-yl)methyl)-N-(2-hydroxy-2-(4-methyl-1-oxo-1,3-dihydroisobenzofuran-5-yl)ethyl)acetamide], 780 nM; that for `Cc1cc(-n2ncc(C(C)NC[C@H](O)c3ccc4c(c3C)COC4=O)n2)ncc1C#N` (single isomer, unassigned) [Example 59], 540 nM. As for `Cc1cn(-c2ncc(CNC[C@H](O)c3ccc4c(c3C)COC4=O)cc2F)cn1` (single isomer, unassigned) [Example 83], the IC50 was found to be 46 nM.

On to `Cc1c([C@@H](O)CN(C)Cc2ccc(-c3ccc4oc(=O)n(C)c4c3)cn2)ccc2c1COC2=O` (single isomer, unassigned) [Example 84], for which the IC50 was found to be 82 nM.

Turning to `Cc1cc(-n2cc(CNCC(C)(O)c3ccc4c(c3C)COC4=O)cn2)ncc1C#N` (single isomer, unassigned) [Example 170-I, 6-(4-(((2-hydroxy-2-(4-methyl-1-oxo-1,3-dihydroisobenzofuran-5-yl)propyl)amino)methyl)-1H-pyrazol-1-yl)-4-methylnicotinonitrile], the IC50 was determined as 160 nM. Regarding `Cc1cc(-n2cc(CNCC(O)c3ccc4c(c3C)C(C)OC4=O)cn2)ncc1C#N` (single isomer, unassigned) [Example 172-I, 6-(4-(((2-(3,4-dimethyl-1-oxo-1,3-dihydroisobenzofuran-5-yl)-2-hydroxyethyl)amino)meth-yl)-1H-pyrazol-1-yl)-4-methylnicotinonitrile], the IC50 turned out to be 850 nM. For the compound `Cc1cc(-n2cc(CNCC(O)c3ccc4c(c3C)C(C)OC4=O)cn2)ncc1C#N` (single isomer, unassigned) [Example 172-II, 6-(4-(((2-(3,4-dimethyl-1-oxo-1,3-dihydroisobenzofuran-5-yl)-2-hydroxyethyl)amino)meth-yl)-1H-pyrazol-1-yl)-4-methylnicotinonitrile], the IC50 is 1800 nM. The result for `Cc1c(C(CO)N(C)Cc2cnc(-n3ncc4c(C#N)cccc43)nc2)ccc2c1COC2=O` (stereo not drawn) [Example 2-I] reads 1900 nM; that for `Cc1c(C(O)CN(C)Cc2cnc(-c3ccc4oc(=O)n(C)c4c3)nc2)ccc2c1COC2=O` (stereo not drawn) [Example 9-I], 290 nM. As for `Cc1c(C(O)CN(Cc2ccc(-c3ccc(C#N)c(F)c3)cc2)Cc2cccnc2)ccc2c1COC2=O` (stereo not drawn) [Example 11-I, 3-fluoro-4′-(((2-hydroxy-2-(4-methyl-1-oxo-1,3-dihydroisobenzofuran-5-yl)ethyl)(pyridin-3-ylmethyl)amino)methyl)-[1,1′-biphenyl]-4-carbonitrile], the IC50 amounted to 3700 nM.
